Laboratory results published in paper PMC11378297, “Discovery and Profiling of New Multimodal Phenylglycinamide Derivatives as Potent Antiseizure and Antinociceptive Drug Candidates” (ACS Chemical Neuroscience, 2024).

Tests used:
[1] = chimney test (motor coordination, TD50); conditions: mouse, in vivo, ip, mice
Excerpt: Both the aforementioned parameters (ED50 and TD50) enabled the calculation of protective indexes (PIs), which reflect the comparative the benefit–risk ratio of these experimental therapeutic agents.
Four mice per group were randomly assigned to each experimental group in the initial screening experiments (each mouse was used just once). Four groups, each with eight animals, received injections of different doses of the investigated substances in order to determine the ED50 or TD50 values. The PIs for the compounds investigated and reference ASMs were calculated by dividing the TD50 value, as determined in the chimney test by the respective ED50 value, as determined in the MES, scPTZ, or 6 Hz (32 mA or 44 mA) tests (PI = TD50/ED50). The PIs are a measure of the potential therapeutic window of the tested agent.
All substances were suspended in Tween 80 (1% aqueous solution) and administered i.p. as a single injection at a volume of 10 mL/kg. On each day of experimentation, fresh solutions were prepared.

Na+ channel (site 2) = Na+ channel (site 2) radioligand binding; conditions: 10 μM, rat cerebral cortex
Procedure: The current body of literature consistently reports that both sodium (Navx) and Cav1.2 calcium ion channels can be involved in the pathogenesis of epilepsy[67]−[69] and neuropathic pain.[70]−[73] […] Therefore, we performed binding and functional studies toward sodium (site 2) and calcium Cav1.2 channels at concentrations of 10 μM for (R)-31−(R)-33.
Using previously described testing methodologies, binding/functional tests were conducted on a commercial basis at Eurofins Laboratories (Poitiers, France) and Eurofins Panlabs Discovery Services Taiwan, Ltd. (New Taipei City, Taiwan); see Table S9 for more information.
Table S9. Radioligand binding and functional assays. […]
Assays were performed commercially in Eurofins Laboratories (Poitiers, France) or Eurofins Panlabs Discovery Services
Taiwan, Ltd. (New Taipei City, Taiwan).

[2] = system: ivPTZ seizure threshold, mice; assay: timed ivPTZ seizure threshold test; format: in vivo, mouse; conditions: for effect on the threshold for the onset of any of the studied end points (ivPTZ): 30 min before test
Procedure: The effects of (R)-31, (R)-32, and (R)-33 on the thresholds for the first myoclonic twitch, generalized clonus with loss of righting reflex, and forelimb tonus in the timed ivPTZ seizure test in mice were evaluated in the following step of pharmacological characterization. […] It should be noted that the ivPTZ seizure test is an extremely sensitive method for determining the seizure threshold in rodents.[47] In this model, (R)-31 at a dose of 50 mg/kg had no effect on the threshold for the onset of any of the studied end points. […] Compounds (R)-32 and (R)-33 were tested at a dose of 50 mg/kg only. […] (R)-33 was ineffective in the ivPTZ seizure threshold test.
Figure 2 Effect of eutomers (R)-31, (R)-32, and (R)-33 on the thresholds for the onset of (A) myoclonic twitch, (B) generalized clonus, and (C) forelimb tonic extension in the timed ivPTZ test in mice. (R)-31, (R)-32, and (R)-33 were administered, i.p., 30 min before the seizure test. Control animals received vehicle. Data are presented as means + SD in mg/kg of PTZ necessary to induce each of the three end points (n = 7–14 animals). Statistical significance was evaluated using Student’s t-test: **p < 0.01, ****p < 0.0001 vs the vehicle-treated group (GraphPad Prism 8.4.3).
(§1) 30 min prior to the testing, eutomers (R)-31, (R)-32, and (R)-33 were given i.p. after being suspended in a 1% Tween 80 solution. To reduce the number of animals utilized, neuromuscular strength measurements were made right before the seizure threshold test. The grip-strength test and the timed ivPTZ test experimental protocols were covered in full elsewhere.[87]

[3] = system: neuromuscular strength, mice; assay: grip strength test; format: in vivo, mouse
Procedure: Prior to the ivPTZ test, a grip strength test was conducted to evaluate the tested eutomers’ acute impact on neuromuscular strength.
as §1
Figure S3. Effects of (R)-31, (R)-32, and (R)-33 on neuromuscular strength in mice. The compounds were administered i.p., 30 min before the test. Control animals received vehicle. Data are presented as mean ± SD grip strengths in millinewtons per gram of mouse body weight (mN/g); n = 10 animals. The statistical significance was evaluated using the Student’s t test (GraphPad Prism 8). […]

[4] = metabolic stability in human liver microsomes (HLMs); format: in vitro ADME; conditions: for remaining at 2 h: human, human liver microsomes, 120 min incubation, TRIS buffer pH 7.4, 37 °C; for metabolic pathway: metabolites M1–M3 (one cell per metabolite)
CYP2D6 = molecular target: T1, CYP2D6 (Homo sapiens, UniProt P10635); assay: CYP2D6 P450-Glo assay; format: in vitro ADME
T1 construct: purchased Promega (Madison, WI, USA)
T1 sequence (P10635 whole entry): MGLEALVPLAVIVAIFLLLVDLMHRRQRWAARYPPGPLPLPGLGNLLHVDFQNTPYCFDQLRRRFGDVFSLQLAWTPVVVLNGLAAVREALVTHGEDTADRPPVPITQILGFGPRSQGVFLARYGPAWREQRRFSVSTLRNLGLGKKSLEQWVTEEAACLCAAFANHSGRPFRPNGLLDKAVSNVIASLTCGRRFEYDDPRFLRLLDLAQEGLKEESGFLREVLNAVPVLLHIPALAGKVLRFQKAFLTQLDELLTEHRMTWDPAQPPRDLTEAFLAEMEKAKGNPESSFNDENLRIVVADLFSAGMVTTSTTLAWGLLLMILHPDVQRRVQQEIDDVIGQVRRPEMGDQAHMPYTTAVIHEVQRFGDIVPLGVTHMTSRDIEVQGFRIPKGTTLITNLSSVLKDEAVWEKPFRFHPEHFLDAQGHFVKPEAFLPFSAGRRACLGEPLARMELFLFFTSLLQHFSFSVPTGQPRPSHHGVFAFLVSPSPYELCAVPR
Procedure: The inhibition effect of enantiomers on CYP2C9 was also determined, but only at the highest concentrations (Figure 10C). In summary, the potential for DDIs of the tested enantiomers in comparison to the reference CYP inhibitors was estimated as very low.
Figure 10 Influence of (R)-31, (R)-32, and (R)-33 on: CYP3A4 activity (A) and the reference inhibitor ketoconazole (KE), CYP2D6 activity (B) and the reference inhibitor quinidine (QD), CYP2C9 activity (C) and the reference inhibitor sulfaphenazole (SE). The results are presented as means + SD. Statistical significance was evaluated by one-way ANOVA, followed by Bonferroni’s multiple comparison post hoc test (Graph Pad Prism 8.0.1 software) *p < 0.05, **p < 0.01, ***p < 0.001, ****p < 0.0001.
All assays and protocols used for the evaluation of compounds ADME-Tox parameters were described previously.[35]−[38],[95]−[98] The precoated PAMPA Plate System Gentest was utilized to estimate passive permeability (Tewksbury, MA, USA). HLMs, obtained from Sigma-Aldrich (St. Louis, MO, USA), were used for the metabolic stability assay. The most likely sites of metabolism could be identified, thanks to the MetaSite 6.0.1 program from Molecular Discovery Ltd. (Hertfordshire, UK), which was used to support the microsome experiments. The impact on recombinant human cytochromes CYP3A4, CYP2D6, and CYP2C9 was examined using CYP3A4, CYP2D6, and CYP2C9 P450-Glo kits supplied by Promega (Madison, WI, USA) in order to anticipate possible DDIs. […] The vitality of the cells was assessed using the CellTiter 96 AQueous Non-Radioactive Cell Proliferation Assay (Promega, Madison, WI, USA), following a 48 h incubation period with either the reference medication, doxorubicin (DOX), or serial dilutions of the investigated compounds. Using an EnSpire PerkinElmer microplate reader (Waltham, MA, USA), the luminescent signal and absorbances (measured at 490 nm) in DDIs and safety assays were determined. […]

SMILES | TD50 at 0.5 h [1] [mg/kg] | % inhibition of control specific binding (Na+ channel (site 2)) | effect on the threshold for the onset of any of the studied end points (ivPTZ) ([2]; 50 mg/kg i.p.) | threshold for generalized clonic seizure (ivPTZ) ([2]; 100 mg/kg i.p., p < 0.01) | effect on neuromuscular strength (grip strength test) ([3]; 50 mg/kg i.p.) | effect on neuromuscular strength (grip strength test) ([3]; 100 mg/kg i.p.) | remaining at 2 h [4] [%] | metabolic pathway ([4]; metabolite 404.19 (M2)) | metabolic pathway ([4]; metabolite 422.22 (M3)) | metabolic pathway ([4]; metabolite 454.01 (M1)) | effect on CYP2D6 activity (CYP2D6; 1 and 10 μM) | threshold for the onset of forelimb tonus (ivPTZ) ([2]; 50 mg/kg i.p.) | threshold for the first myoclonic twitch (ivPTZ) ([2]; 50 mg/kg i.p., p < 0.0001) | threshold for generalized clonus (ivPTZ) ([2]; 50 mg/kg i.p., p < 0.01) | metabolic pathway ([4]; metabolite 420.22 (M2)) | metabolic pathway ([4]; metabolite 438.25 (M1)) | metabolic pathway ([4]; metabolite 436.21 (M2)) | metabolic pathway ([4]; metabolite 454.08 (M3)) | effect on CYP2D6 activity (CYP2D6; 25 μM)
CC(=O)N[C@@H](C(=O)N1CCN(c2cccc(C(F)(F)F)c2)CC1)c1ccccc1 [(R)-31, (R)-N-(2-Oxo-1-phenyl-2-(4-(3-(trifluoromethyl)phenyl)piperazin-1-yl)ethyl)acetamide] | 174 | 33.9 (10) % | had no effect | significantly raised the threshold | did not produce any significant effects | did not produce any significant effects | 85.2 | dehydrogenation | hydroxylation | triple-hydroxylation | weak activation | – | – | – | – | – | – | – | –
CC(=O)N[C@@H](C(=O)N1CCN(c2cccc(OC(F)(F)F)c2)CC1)c1ccccc1 [(R)-32, (R)-N-(2-Oxo-1-phenyl-2-(4-(3-(trifluoromethoxy)phenyl)piperazin-1-yl)ethyl)acetamide] | 114 | 40.7 (10) % | – | – | did not produce any significant effects | – | 78.5 | – | – | – | weak activation | did not affect the threshold | significantly increased the thresholds | significantly increased the thresholds | dehydrogenation | hydroxylation | – | – | –
CC(=O)N[C@@H](C(=O)N1CCN(c2cccc(SC(F)(F)F)c2)CC1)c1ccccc1 [(R)-33, (R)-N-(2-Oxo-1-phenyl-2-(4-(3-((trifluoromethyl)thio)phenyl)piperazin-1-yl)ethyl)acetamide] | 146 | 63.2 (10) % | ineffective | – | did not produce any significant effects | – | 70.3 | – | – | – | – | – | – | – | – | – | dehydrogenation | hydroxylation | slightly inhibited
